Source: ChEMBL document CHEMBL5576083, “Structure-Based Design and Synthesis of Covalent Inhibitors for Deubiquitinase and Acetyltransferase ChlaDUB1 of Chlamydia trachomatis” (J Med Chem, 2024)
Values after ≈ are worked out from the molar mass of the structure shown. Active and inactive are the calls of the source. The rule behind the calls is not given here.

Tests used:
[1] = Covalent inhibition of C-terminal 6His-tagged Chlamydia trachomatis DUB1 (130 to 401 residues) expressed in Escherichia coli Rosetta 2 (DE3) cells using Ub-Rh110Gly as fluorogenic substrate preincubated for 1 hr followed by substrate addition by plate reader analysis
Chlamydia trachomatis [2] = assay: Anti-chlamydial activity against Chlamydia trachomatis serovar L2 infected in human HEp-2 cells assessed as inhibition of chlamydial inclusion incubated for 24 hrs by Alexa488/DAPI staining based immunofluorescence assay; type: functional, organism-based; conditions: serovar L2, HEp-2, 24 h
Chlamydia trachomatis [3] = assay: Antimicrobial activity against Chlamydia trachomatis serovar L2 infected in human HeLa cells assessed as reduction in microbial progeny at 3.13 ug/ml measured after 48 hrs of post-infection by immunofluorescence analysis; type: functional; design: scale not given: the % may be the effect or the level left; conditions: dose 3.13 µg/ml
Chlamydia trachomatis [4] = assay: Antimicrobial activity against Chlamydia trachomatis serovar L2 infected in human HeLa cells assessed as reduction in microbial progeny at 1.56 ug/ml measured after 48 hrs of post-infection by immunofluorescence analysis; type: functional; design: scale not given: the % may be the effect or the level left; conditions: dose 1.56 µg/ml
Chlamydia trachomatis [5] = assay: Antimicrobial activity against Chlamydia trachomatis serovar L2 infected in human HeLa cells assessed as reduction in microbial progeny at 3.13 ug/ml measured after 24 hrs of post-infection by immunofluorescence analysis; type: functional; design: scale not given: the % may be the effect or the level left; conditions: dose 3.13 µg/ml
Chlamydia trachomatis [6] = assay: Antimicrobial activity against Chlamydia trachomatis serovar L2 infected in human HeLa cells assessed as reduction in microbial progeny at 1.56 ug/ml measured after 24 hrs of post-infection by immunofluorescence analysis; type: functional; design: scale not given: the % may be the effect or the level left; conditions: dose 1.56 µg/ml
Chlamydia trachomatis [7] = assay: Antimicrobial activity against Chlamydia trachomatis serovar L2 infected in human HeLa cells assessed as reduction in inclusion area at 6.25 ug/ml measured after 24 hrs of post-infection by microscopic analysis (reference value: 79.96 microm2); type: functional; conditions: dose 6.25 µg/ml
Chlamydia trachomatis [8] = assay: Antimicrobial activity against Chlamydia trachomatis serovar L2 infected in human HeLa cells assessed as reduction in microbial progeny at 12.5 ug/ml measured after 24 hrs of post-infection by immunofluorescence analysis; type: functional; design: scale not given: the % may be the effect or the level left; conditions: dose 12.5 µg/ml
Chlamydia trachomatis [9] = assay: Antimicrobial activity against Chlamydia trachomatis serovar L2 infected in human HeLa cells assessed as reduction in inclusion circumference at 6.25 ug/ml measured after 24 hrs of post-infection by microscopic analysis (reference value: 33.2 micrometer); type: functional; conditions: dose 6.25 µg/ml
Chlamydia trachomatis [10] = assay: Antimicrobial activity against Chlamydia trachomatis serovar L2 infected in human HeLa cells assessed as reduction in microbial progeny at 6.25 ug/ml measured after 24 hrs of post-infection by immunofluorescence analysis; type: functional; design: scale not given: the % may be the effect or the level left; conditions: dose 6.25 µg/ml
Chlamydia trachomatis [11] = assay: Antimicrobial activity against Chlamydia trachomatis serovar L2 infected in human HeLa cells assessed as reduction in inclusion area at 12.5 ug/ml measured after 24 hrs of post-infection by microscopic analysis (reference value: 79.96 microm2); type: functional; conditions: dose 12.5 µg/ml
Chlamydia trachomatis [12] = assay: Antimicrobial activity against Chlamydia trachomatis serovar L2 infected in human HeLa cells assessed as reduction in inclusion circumference at 12.5 ug/ml measured after 24 hrs of post-infection by microscopic analysis (reference value: 33.2 micrometer); type: functional; conditions: dose 12.5 µg/ml
[13] = (§1) Binding affinity to C-terminal 6His-tagged Chlamydia trachomatis DUB1 (130 to 401 residues) expressed in Escherichia coli Rosetta 2 (DE3) cells using Ub-Rh110Gly as fluorogenic substrate assessed as inhibition constant preincubated for 60 mins followed by substrate addition measured after 360 mins by plate reader analysis
Chlamydia trachomatis [14] = assay: as §1, with “Kinact” for “inhibition constant”; conditions: time 420.0 min
Chlamydia trachomatis [15] = assay: as §1, with “ratio of Kinact/Ki” for “inhibition constant”; conditions: time 420.0 min
[16] = target: Ubiquitin carboxyl-terminal hydrolase isozyme L1 (Homo sapiens) (UniProt P09936); assay: Binding affinity to human UCHL1 (1 to 223 residues) expressed in Escherichia coli Rosetta 2 (DE3) cells using Ub-Rh110Gly as fluorogenic substrate assessed as ratio of Kinact/Ki by fluorescence based analysis
Chlamydia trachomatis [17] = assay: Antimicrobial activity against Chlamydia trachomatis serovar L2 infected in human HeLa cells assessed as reduction in inclusion forming unit at 1 ug/ml measured at 24 to 48 hrs of post-infection by immunofluorescence based microscopic analysis; type: functional, organism-based; conditions: dose 1.0 µg/ml, time 24-48 hrs
Chlamydia trachomatis [18] = assay: Antimicrobial activity against Chlamydia trachomatis serovar L2 infected in human HeLa cells assessed as fold increase in inclusion forming unit at 1 ug/ml measured after 48 hrs of post-infection by immunofluorescence based microscopic analysis; type: functional; conditions: dose 1 µg/ml
[19] = target: T1, Ubiquitin carboxyl-terminal hydrolase isozyme L1 (Homo sapiens, UniProt P09936); assay: Inhibition of 6His-tagged human UCHL1 using Ub-Rh110Gly as fluorogenic substrate preincubated for 1 hr followed by substrate addition by plate reader analysis
T1 sequence (P09936 whole entry): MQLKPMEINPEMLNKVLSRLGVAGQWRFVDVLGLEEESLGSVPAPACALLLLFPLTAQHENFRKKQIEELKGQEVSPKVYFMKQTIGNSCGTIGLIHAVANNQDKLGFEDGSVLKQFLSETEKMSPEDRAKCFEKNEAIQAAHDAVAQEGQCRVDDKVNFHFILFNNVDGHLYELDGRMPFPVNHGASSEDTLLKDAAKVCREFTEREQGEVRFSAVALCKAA

[20] = target: Ubiquitin carboxyl-terminal hydrolase 7 (Homo sapiens) (UniProt Q93009); assay: Binding affinity to USP7 (208 to 1102 residues) (unknown origin) expressed in Sf9 insect cells assessed as ratio of Kinact/Ki incubated for 3 hrs by fluorescence based analysis
Chain of Ubiquitin carboxyl-terminal hydrolase 7 (Homo sapiens) (Q93009 whole entry, looked up, the tested form may be a part): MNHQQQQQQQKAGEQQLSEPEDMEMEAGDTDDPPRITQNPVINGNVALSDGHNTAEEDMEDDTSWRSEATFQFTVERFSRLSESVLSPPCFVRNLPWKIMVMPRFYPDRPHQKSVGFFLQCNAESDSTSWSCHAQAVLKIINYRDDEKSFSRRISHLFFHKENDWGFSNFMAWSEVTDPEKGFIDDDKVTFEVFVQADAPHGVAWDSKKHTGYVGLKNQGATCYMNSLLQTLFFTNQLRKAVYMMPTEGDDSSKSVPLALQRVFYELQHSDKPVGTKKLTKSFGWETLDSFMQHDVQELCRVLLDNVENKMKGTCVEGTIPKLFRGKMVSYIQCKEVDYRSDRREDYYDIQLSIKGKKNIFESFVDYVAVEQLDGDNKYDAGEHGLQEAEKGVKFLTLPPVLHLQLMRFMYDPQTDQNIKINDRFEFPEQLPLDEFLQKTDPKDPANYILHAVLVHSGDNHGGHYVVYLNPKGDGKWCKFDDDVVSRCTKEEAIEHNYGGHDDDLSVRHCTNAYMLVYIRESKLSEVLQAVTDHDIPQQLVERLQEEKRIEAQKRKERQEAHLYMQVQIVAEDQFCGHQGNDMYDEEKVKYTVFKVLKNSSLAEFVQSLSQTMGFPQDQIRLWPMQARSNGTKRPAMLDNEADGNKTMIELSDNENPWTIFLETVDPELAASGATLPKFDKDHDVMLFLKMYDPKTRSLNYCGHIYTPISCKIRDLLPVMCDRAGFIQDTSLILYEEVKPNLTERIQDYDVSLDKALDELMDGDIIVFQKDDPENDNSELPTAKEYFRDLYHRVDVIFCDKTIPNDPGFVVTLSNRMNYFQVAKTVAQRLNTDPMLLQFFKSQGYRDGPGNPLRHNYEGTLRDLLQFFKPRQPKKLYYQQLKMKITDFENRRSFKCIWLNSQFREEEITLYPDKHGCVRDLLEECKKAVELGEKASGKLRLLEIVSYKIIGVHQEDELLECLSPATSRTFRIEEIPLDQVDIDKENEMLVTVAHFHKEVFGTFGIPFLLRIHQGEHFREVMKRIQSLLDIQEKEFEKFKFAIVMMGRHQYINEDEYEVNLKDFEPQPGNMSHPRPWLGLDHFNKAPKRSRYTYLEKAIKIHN

Work on Cc1ccc(CNC(=O)c2ccc(CNC(=O)c3cnc(C#N)nc3)cc2)cc1 yielded an IC50 [1] of 241 µM and a pIC50 [1] of 3.62.

With N#Cc1ncc(C(=O)NCc2ccc(C(=O)NCC3CCC3)cc2)cn1 the IC50 (Chlamydia trachomatis [2]) was 38.9 µg/mL (≈ 111 µM), the IC50 [1] was 21 µM and the pIC50 [1] was 4.67.

With CC(C)(C)N(Cc1ccc(C(=O)Cc2ccccc2)cc1)C(=O)c1cnc(C#N)nc1 the IC50 (Chlamydia trachomatis [2]) was 9.88 µg/mL (≈ 24 µM), the Activity (Chlamydia trachomatis [3]) was 51.5% and the Activity (Chlamydia trachomatis [4]) was 55.5%. It also gave an Activity (Chlamydia trachomatis [5]) of 31.5%, an Activity (Chlamydia trachomatis [6]) of 16.5% and an Activity (Chlamydia trachomatis [7]) of 44.93 um2. For the same molecule, the Activity (Chlamydia trachomatis [8]) was 81%, the Activity (Chlamydia trachomatis [9]) was 24.83 um and the Activity (Chlamydia trachomatis [10]) was 38.5%. The Activity (Chlamydia trachomatis [11]) was 23.3 um2, the Activity (Chlamydia trachomatis [12]) was 18.05 um and the IC50 [1] was 41 µM. For the same molecule, the pIC50 [1] was 4.13.

For N#Cc1ncc(C(=O)NCc2ccc(C(=O)NCCC3CC3)cc2)cn1, the IC50 (Chlamydia trachomatis [2]) was 40.7 µg/mL (≈ 116 µM), the IC50 [1] was 25 µM and the pIC50 [1] was 4.6.

N#Cc1ncc(C(=O)NCc2ccc(C(=O)CCN3CCOCC3)cc2)cn1 showed a Ki [13] of 441 µM, a Kinact (Chlamydia trachomatis [14]) of 0.363 min⁻¹ and a Ratio (Chlamydia trachomatis [15]) of 13.7 M⁻¹ s⁻¹. It also gave an IC50 [1] of 14 µM and a pIC50 [1] of 4.86.

Molecule N#Cc1ncc(C(=O)NCc2ccc(C(=O)Cc3ccccc3)cc2)cn1 has an IC50 [1] of 24 µM and a pIC50 [1] of 4.63.

With CCCN(CCC)C(=O)c1ccc(CNC(=O)c2cnc(C#N)nc2)cc1 the IC50 [1] was 74 µM and the pIC50 [1] was 4.13.

In the case of N#Cc1ncc(C(=O)NCc2ccc(C(=O)NCCc3ccccc3)cc2)cn1, the IC50 [1] is reported as 64 µM and the pIC50 [1] is reported as 4.2.

N#Cc1ncc(C(=O)NCc2ccc(C(=O)NCc3nccs3)cc2)cn1 showed an IC50 [1] of 31 µM and a pIC50 [1] of 4.51.

Molecule N#Cc1ncc(C(=O)NCc2ccc(C(=O)NCCN3CCOCC3)cc2)cn1 has an IC50 [1] of 51 µM and a pIC50 [1] of 4.29.

For Cn1c(-c2ccc(CNC(=O)c3cnc(C#N)nc3)cc2)nc2ccccc21, the IC50 [1] was 131 µM and the pIC50 [1] was 3.88.

With COc1ccccc1CNC(=O)c1ccc(CNC(=O)c2cnc(C#N)nc2)cc1 the IC50 (Chlamydia trachomatis [2]) was 16.9 µg/mL (≈ 42.1 µM), the Ki [13] was 276 µM and the IC50 [1] was 31 µM. It also gave a pIC50 [1] of 4.5.

Molecule Cc1ccccc1CNC(=O)c1ccc(CNC(=O)c2cnc(C#N)nc2)cc1 has an IC50 (Chlamydia trachomatis [2]) of 16.9 µg/mL (≈ 43.8 µM), an IC50 [1] of 18 µM and a pIC50 [1] of 4.75.

In the case of N#Cc1ncc(C(=O)NCc2ccccc2)cn1, the IC50 [1] is reported as 154 µM and the pIC50 [1] is reported as 3.82.

Work on CC(=O)c1ccc(CNC(=O)c2cnc(C#N)nc2)cc1 yielded an IC50 (Chlamydia trachomatis [2]) of 47.4 µg/mL (≈ 169 µM), an IC50 [1] of 74 µM and a pIC50 [1] of 4.13.

Molecule COc1cccc(CNC(=O)c2ccc(CNC(=O)c3cnc(C#N)nc3)cc2)c1 has an IC50 (Chlamydia trachomatis [2]) of over 50 µg/mL, an IC50 [1] of 81 µM and a pIC50 [1] of 4.09.

N#Cc1ncc(C(=O)NCc2ccc(C(=O)N3CCc4ccccc4C3)cc2)cn1 gave an IC50 [1] of 16 µM and a pIC50 [1] of 4.79.

With CC(C)CN(CC(C)C)C(=O)c1ccc(CNC(=O)c2cnc(C#N)nc2)cc1 the IC50 (Chlamydia trachomatis [2]) was 28.4 µg/mL (≈ 72.2 µM), the IC50 [1] was 35 µM and the pIC50 [1] was 4.46.

Work on COc1ccc(CNC(=O)c2ccc(CNC(=O)c3cnc(C#N)nc3)cc2)cc1 yielded an IC50 [1] of 521 µM and a pIC50 [1] of 3.28.

With Cc1cccc(CNC(=O)c2ccc(CNC(=O)c3cnc(C#N)nc3)cc2)c1 the IC50 (Chlamydia trachomatis [2]) was 17.3 µg/mL (≈ 44.9 µM), the IC50 [1] was 21 µM and the pIC50 [1] was 4.68.

Work on C#CCCCNC(=O)c1ccc(-n2cnc(NC(=O)[C@H]3CCN(C#N)C3)c2)cc1 yielded a Ratio [16] of 681 M⁻¹ s⁻¹.

In the case of C[C@H]1c2cccc(O)c2C(=O)C2=C(O)[C@]3(O)C(=O)C(C(N)=O)=C(O)[C@@H](N(C)C)[C@@H]3[C@@H](O)[C@@H]21 [DOXYCYCLINE ANHYDROUS], the IC50 (Chlamydia trachomatis [2]) is reported as 0.018 µg/mL (≈ 0.0405 µM), the Activity (Chlamydia trachomatis [17]) is reported as “Active” and the “fold change (FC)” value (Chlamydia trachomatis [18]) is reported as 5.3.

With N#Cc1ncc(C(=O)NCc2ccc(C(=O)NCC3CCCCC3)cc2)cn1 the IC50 [1] was 23 µM and the pIC50 [1] was 4.64.

Molecule N#Cc1ncc(C(=O)NCc2ccc(C(=O)NCC3CC3)cc2)cn1 has an IC50 (Chlamydia trachomatis [2]) of 47.7 µg/mL (≈ 142 µM), an IC50 [1] of 37 µM and a pIC50 [1] of 4.43.

N#Cc1ncc(C(=O)NCc2ccc(C(=O)NCc3ccccc3)cc2)cn1 showed an IC50 (Chlamydia trachomatis [2]) of 19.4 µg/mL (≈ 52.2 µM), a Ki [13] of 226 µM and an IC50 [1] of 27 µM. For the same molecule, the pIC50 [1] was 4.57.

Molecule Cc1nn(C)c2cc(-c3ccc(-n4cnc(NC(=O)[C@H]5CCN(C#N)C5)c4)cc3)ccc12 has an IC50 [19] of under 1 µM.

Work on CCOc1ccccc1CNC(=O)c1ccc(CNC(=O)c2cnc(C#N)nc2)cc1 yielded an IC50 (Chlamydia trachomatis [2]) of 15.8 µg/mL (≈ 38 µM), an IC50 [1] of 13 µM and a pIC50 [1] of 4.9.

C=CS(=O)(=O)Nc1ccccc1-c1ccc(C(=O)N2CCC(O)(Cn3cnc4c(cnn4C)c3=O)CC2)cc1 gave a Ratio [20] of 66 M⁻¹ s⁻¹.
